Measurements taken from US20110034507A1, “FARNESOID X RECEPTOR AGONISTS” (SMITHKLINE BEECHAM CORPORATION, priority 2007, published 2011).

The compounds below were run against T1, Human FXRα Ligand Binding Domain (Homo sapiens, UniProt Q96RI1) (assay: FXR Cofactor Binding Assay (ligand mediated SRC-1 cofactor peptide interaction, time resolved fluorescence)). Conditions: FXRα LBD / SRC-1 (LCD2, 676-700) peptide, TRF; read-out: Activity (pEC50) (converted).
T1 construct: polyhistidine (pRSET-A vector leader) (N); made in house; host or cells: E. coli BL21 (DE3), pRSET-A vector
T1 sequence (Q96RI1 237-472 isoform Q96RI1-2): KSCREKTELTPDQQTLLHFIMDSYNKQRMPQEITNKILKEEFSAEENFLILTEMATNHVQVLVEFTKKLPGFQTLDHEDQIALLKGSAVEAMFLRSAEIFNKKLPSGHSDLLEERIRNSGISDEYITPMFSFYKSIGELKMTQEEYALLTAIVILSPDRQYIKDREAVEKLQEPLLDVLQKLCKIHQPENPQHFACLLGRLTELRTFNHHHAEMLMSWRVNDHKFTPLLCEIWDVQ
Format: biochemical
From the text: Determination of a ligand mediated cofactor peptide interaction to quantify ligand binding to the nuclear receptor Farnesoid X Receptor (FXR). The method measures the ability of putative ligands to modulate the interaction between the purified bacterial expressed FXRα ligand binding domain (LBD) and a synthetic biotinylated peptide based on residues 676-700 of steroid receptor coactivator-1 (SRC-1) (LXXLL-containing domain-2 where L is the amino acid leucine and X indicates any other amino acid (LCD2), 676-700). The sequence of the SRC-1 peptide used is as published in Iannone, M. A., et al., 2001 Cytometry 44:326-337 where the N-terminus was biotinylated (B) and the C-terminus was amidated. Detection of the associated complex was measured by time resolved fluorescence (TRF). The purified LBD of FXR was labeled with biotin, then mixed with stoichiometric amounts of allophycocyanin (APC) labeled streptavidin (Molecular Probes). The biotinylated peptide was then mixed with a ½ stoichiometric amount of europium labeled streptavidin (Wallac Inc). Each was then blocked with a 5 fold excess of biotin and allowed to equilibrate for 15 min. Equimolar amounts of receptor and peptide were mixed together and were allowed to equilibrate for at least 30 min prior to the addition to either a variable or constant concentrations of the sample for which the affinity is to be determined. After equilibration, the time-resolved fluorescent signal was quantitated using a fluorescent plate reader. The affinity of the test compound was estimated from a plot of fluorescence versus concentration of test compound added.
Ligands that promote the complex formation induce a concentration-dependent increase in time-resolved fluorescent signal.
Human FXRα Ligand Binding Domain (FXRα LBD) was expressed in E. coli strain BL21 (DE3) as an amino-terminal polyhistidine tagged fusion protein. Expression was under the control of an isopropyl-β-D-thiogalactopyranoside (IPTG) inducible T7 promoter. DNA encoding this recombinant protein is subcloned into the pRSET-A expression vector (Invitrogen). The coding sequence of Human FXRα LBD was derived from Genbank accession number U 68233 (amino acids 237 to 472).
Ten-liter fermentation batches were grown in Rich PO4 media with 0.1 mg/mL Ampicillin at 25° C. for 12 hours, cooled to 9° C. and held at that temperature for 36 hours to a density of OD600=14. At this cell density, 0.25 mM IPTG is added and induction proceeded for 24 hours at 9° C., to a final OD600=16. Cells are harvested by centrifugation (20 minutes, 3500×gravity, 4° C.), and concentrated cell slurries were stored in phosphate buffered saline (PBS) at […].
Routinely, 30-40 g cell paste (equivalent to 2-3 liters of the fermentation batch) was resuspended in 200-250 mL Tris buffered saline (TBS), pH 7.2 (25 mM Tris-hydroxymethylamino methane (Tris), 150 mM sodium chloride). Cells were lysed by passing 3 times through a French Press and cell debris was removed by centrifugation (30 minutes, 20,000×gravity, 4° C.). The cleared supernatant was filtered through course pre-filters, and TBS, pH 7.2, 500 mM imidazole was added to obtain a final imidazole concentration of 50 mM. This lysate was loaded onto a column (6×8 cm) packed with Sepharose [Ni^++ charged] Chelation resin (Pharmacia) and pre-equilibrated with TBS pH 7.2/50 mM imidazole. After washing to baseline absorbance with equilibration buffer, the column was washed with one column volume of TBS pH 7.2 containing 90 mM imidazole. FXRα LBD was eluted directly with 365 mM imidazole. Column fractions were pooled and dialyzed against TBS, pH 7.2, containing 0.5 mM EDTA and 5 mM DTT. The dialyzed protein sample was concentrated using Centri-prep 10 K (Amicon) and subjected to size exclusion, using a column (3×90 cm) packed with Sepharose S-75 resin (Pharmacia) pre-equilibrated with TBS, pH 7.2, containing 0.5 mM ethylene diamine tetraacetic acid (EDTA) and 5 mM dithiothreitol (DTT).

| SMILES | EC50 [nM] |
| --- | --- |
| CC(=O)Nc1ccc(-c2ccc3cc(OCc4c(-c5c(Cl)cccc5Cl)noc4C(C)C)ccc3c2)cc1 [Example 31, N-{4-[6-({[3-(2,6-dichlorophenyl)-5-(1-methylethyl)-4-isoxazolyl]methyl}oxy)-2-naphthalenyl]phenyl}acetamide] | 102 to 1000 |
| CC(C)c1onc(-c2ccccc2OC(F)(F)F)c1COc1ccc2c(ccn2Cc2cccc(C(=O)O)c2)c1 [Example 7, 3-[(5-{[(5-(1-Methylethyl)-3-{2-[(trifluoromethyl)oxy]phenyl}-4-isoxazolyl)methyl]oxy}-1H-indol-1-yl)methyl]benzoic acid] | 102 to 1000 |
| CC(C)c1onc(-c2c(Cl)cccc2Cl)c1COc1ccc2sc(-c3ccc(C(=O)O)cc3)cc2c1 [Example 16, 4-[5-({[3-(2,6-Dichlorophenyl)-5-(1-methylethyl)-4-isoxazolyl]methyl}oxy)-1-benzothien-2-yl]benzoic acid] | 102 to 1000 |
| CC(C)c1onc(-c2c(Cl)cccc2Cl)c1COc1ccc2cc(-c3cncc(C(=O)O)c3)ccc2c1 [Example 17, 5-[6-({[3-(2,6-Dichlorophenyl)-5-(1-methylethyl)-4-isoxazolyl]methyl}oxy)-2-naphthalenyl]-3-pyridinecarboxylic acid] | 102 to 1000 |
| CC(C)c1onc(-c2c(Cl)cccc2Cl)c1CCc1nc2cccc(Nc3cccc(C(=O)O)c3)c2o1 [Example 41, 3-[(2-{2-[3-(2,6-Dichlorophenyl)-5-(1-methylethyl)-4-isoxazolyl]ethyl}-1,3-benzoxazol-7-yl)amino]benzoic acid] | 1020 to 10000 |
| CC(C)c1onc(-c2c(Cl)cccc2Cl)c1COc1ccc2cc(-c3ccnc(C(=O)O)c3)ccc2c1 [Example 20, 4-[6-({[3-(2,6-Dichlorophenyl)-5-(1-methylethyl)-4-isoxazolyl]methyl}oxy)-2-naphthalenyl]-2-pyridinecarboxylic acid] | 102 to 1000 |
| CC(C)c1onc(-c2c(Cl)cccc2Cl)c1COc1ccc2c(Nc3cccc(C(=O)O)c3)cccc2c1 [Example 40, 3-{[6-({[3-(2,6-Dichlorophenyl)-5-(1-methylethyl)-4-isoxazolyl]methyl}oxy)-1-naphthalenyl]amino}benzoic acid] | 102 to 1000 |
| CC(C)c1onc(-c2c(Cl)cccc2Cl)c1COc1ccc2cc(-c3ccc(C(=O)O)cn3)ccc2c1 [Example 24, 6-[6-({[3-(2,6-Dichlorophenyl)-5-(1-methylethyl)-4-isoxazolyl]methyl}oxy)-2-naphthalenyl]-3-pyridinecarboxylic acid] | 102 to 1000 |
| CC(C)c1onc(-c2c(Cl)cccc2Cl)c1COc1ccc2cc(-c3ccc(C(=O)O)cc3)ccc2c1 [Example 22, 4-[6-({[3-(2,6-Dichlorophenyl)-5-(1-methylethyl)-4-isoxazolyl]methyl}oxy)-2-naphthalenyl]benzoic acid] | 102 to 1000 |
| CC(C)c1onc(-c2c(Cl)cccc2Cl)c1COc1ccc2cc(-c3ccc(Cl)c(C(=O)O)c3)ccc2c1 [Example 34, 2-Chloro-5-[6-({[3-(2,6-dichlorophenyl)-5-(1-methylethyl)-4-isoxazolyl]methyl}oxy)-2-naphthalenyl]benzoic acid] | 102 to 1000 |
| CC(C)c1onc(-c2c(Cl)cccc2Cl)c1COc1ccc2c(ccn2Cc2cccc(-c3nnn[nH]3)c2)c1 [Example 12, 5-({[3-(2,6-Dichlorophenyl)-5-(1-methylethyl)-4-isoxazolyl]methyl}oxy)-1-{[3-(1H-tetrazol-5-yl)phenyl]methyl}-1H-indole] | 102 to 1000 |
| CC(C)c1onc(COc2c(Br)cccc2Br)c1COc1ccc2c(ccn2Cc2cccc(C(=O)O)c2)c1 [Example 5, 3-{[5-({[3-{[(2,6-dibromophenyl)oxy]methyl}-5-(1-methylethyl)-4-isoxazolyl]methyl}oxy)-1H-indol-1-yl]methyl}benzoic acid] | 102 to 1000 |
| CC(C)c1onc(-c2c(Cl)cccc2Cl)c1COc1ccc2cc(-c3cccc(C(=O)O)c3)ccc2c1 [Example 38, 3-[6-({[3-(2,6-Dichlorophenyl)-5-(1-methylethyl)-4-isoxazolyl]methyl}oxy)-2-naphthalenyl]benzoic acid] | 102 to 1000 |
| CC(=O)N(C(C)=O)c1cccc(-c2ccc3cc(OCc4c(-c5c(Cl)cccc5Cl)noc4C(C)C)ccc3c2)c1 [Example 27, N-acetyl-N-{3-[6-({[3-(2,6-dichlorophenyl)-5-(1-methylethyl)-4-isoxazolyl]methyl}oxy)-2-naphthalenyl]phenyl}acetamide] | 102 to 1000 |
| CC(C)c1onc(-c2c(Cl)cccc2Cl)c1COc1ccc2cc(-c3ccc(C(=O)O)s3)ccc2c1 [Example 25, 5-[6-({[3-(2,6-Dichlorophenyl)-5-(1-methylethyl)-4-isoxazolyl]methyl}oxy)-2-naphthalenyl]-2-thiophenecarboxylic acid] | 102 to 1000 |

The next lines start with the values.

| EC50 [nM] | SMILES |
| --- | --- |
| 102 to 1000 | CC(C)c1onc(-c2c(Cl)cccc2Cl)c1COc1ccc2c(ccn2C(=O)N2CC[C@H](C(=O)O)C2)c1 [Example 55, (3S)-1-{[5-({[3-(2,6-Dichlorophenyl)-5-(1-methylethyl)-4-isoxazolyl]methyl}oxy)-1H-indol-1-yl]carbonyl}-3-pyrrolidinecarboxylic acid] |
| 1020 to 10000 | CC(C)c1onc(-c2c(Cl)cccc2Cl)c1COc1ccc2[nH]cc(Cc3cccc(C(=O)O)c3)c2c1 [Example 50, 3-{[5-({[3-(2,6-Dichlorophenyl)-5-(1-methylethyl)-4-isoxazolyl]methyl}oxy)-1H-indol-3-yl]methyl}benzoic acid] |
| 102 to 1000 | CC(C)c1onc(-c2c(Cl)cccc2Cl)c1COc1ccc2c(ccn2Cc2nc(C(=O)O)co2)c1 [Example 47, 2-{[5-({[3-(2,6-Dichlorophenyl)-5-(1-methylethyl)-4-isoxazolyl]methyl}oxy)-1H-indol-1-yl]methyl}-1,3-oxazole-4-carboxylic acid] |
| 102 to 1000 | CC(C)c1onc(-c2c(Cl)cccc2Cl)c1COc1ccc2c(c1)CN(c1cccc(C(=O)O)c1)C2=O [Example 44, 3-[5-({[3-(2,6-Dichlorophenyl)-5-(1-methylethyl)-4-isoxazolyl]methyl}oxy)-1-oxo-1,3-dihydro-2H-isoindol-2-yl]benzoic acid] |
| 102 to 1000 | CC(C)c1onc(-c2c(Cl)cccc2Cl)c1COc1ccc2c(c1)CCN(c1cccc(C(=O)O)c1)C2=O [Example 60, 3-[6-({[3-(2,6-Dichlorophenyl)-5-(1-methylethyl)-4-isoxazolyl]methyl}oxy)-1-oxo-3,4-dihydro-2(1H)-isoquinolinyl]benzoic acid] |
| < 100 | CC(C)c1onc(-c2c(Cl)cccc2Cl)c1COc1ccc2c(ccn2Cc2ccc(-c3nnn[nH]3)cc2)c1 [Example 46, 5-({[3-(2,6-Dichlorophenyl)-5-(1-methylethyl)-4-isoxazolyl]methyl}oxy)-1-{[4-(1H-tetrazol-5-yl)phenyl]methyl}-1H-indole] |
| 102 to 1000 | CC(C)c1onc(-c2c(Cl)cccc2Cl)c1COc1ccc2c(ccn2Cc2cccc(C(=O)O)c2)c1 [Example 59, 3-{[5-({[3-(2,6-Dichlorophenyl)-5-(1-methylethyl)-4-isoxazolyl]methyl}oxy)-1H-indol-1-yl]methyl}benzoic acid] |
